How the values were obtained:
[1] = target: T1, Tyrosine-protein kinase JAK3 (Homo sapiens, UniProt P52333)
T1 sequence (P52333 whole entry): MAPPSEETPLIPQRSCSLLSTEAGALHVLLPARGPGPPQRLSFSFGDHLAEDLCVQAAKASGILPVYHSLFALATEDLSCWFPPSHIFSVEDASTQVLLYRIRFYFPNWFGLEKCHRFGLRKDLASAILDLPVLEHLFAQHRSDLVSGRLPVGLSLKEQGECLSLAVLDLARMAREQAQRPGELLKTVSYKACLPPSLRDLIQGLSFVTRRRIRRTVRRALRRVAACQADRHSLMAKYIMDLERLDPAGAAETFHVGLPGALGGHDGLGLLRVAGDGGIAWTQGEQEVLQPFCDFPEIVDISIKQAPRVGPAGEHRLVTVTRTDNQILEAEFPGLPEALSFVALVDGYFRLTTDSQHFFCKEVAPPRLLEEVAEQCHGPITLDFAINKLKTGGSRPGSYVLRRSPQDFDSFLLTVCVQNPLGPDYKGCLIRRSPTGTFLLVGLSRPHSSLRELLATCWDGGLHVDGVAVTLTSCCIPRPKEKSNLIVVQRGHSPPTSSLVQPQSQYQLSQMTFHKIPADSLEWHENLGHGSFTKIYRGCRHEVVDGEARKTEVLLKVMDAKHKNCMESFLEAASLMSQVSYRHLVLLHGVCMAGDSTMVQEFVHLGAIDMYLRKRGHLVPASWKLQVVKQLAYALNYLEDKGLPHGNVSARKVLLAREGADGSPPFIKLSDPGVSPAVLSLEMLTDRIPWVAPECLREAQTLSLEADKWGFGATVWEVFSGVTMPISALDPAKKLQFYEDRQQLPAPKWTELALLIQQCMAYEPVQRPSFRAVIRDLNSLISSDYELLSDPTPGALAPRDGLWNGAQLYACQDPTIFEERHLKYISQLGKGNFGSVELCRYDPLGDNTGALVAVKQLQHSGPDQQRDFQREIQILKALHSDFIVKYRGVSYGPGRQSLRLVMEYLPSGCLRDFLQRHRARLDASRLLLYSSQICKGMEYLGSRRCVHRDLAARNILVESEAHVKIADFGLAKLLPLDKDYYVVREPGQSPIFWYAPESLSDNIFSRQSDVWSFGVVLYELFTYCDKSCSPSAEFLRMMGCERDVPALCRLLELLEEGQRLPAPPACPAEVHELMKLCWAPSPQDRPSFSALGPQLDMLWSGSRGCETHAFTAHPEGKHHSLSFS

[2] = target: Casein kinase I isoform gamma-1 (Homo sapiens) (UniProt Q9HCP0); experiment: Selectivity interaction (KinomeScan (DiscoverX)) EUB0000655a CSNK1G1; conditions: at 10 µM
Casein kinase I isoform gamma-1 (Homo sapiens), sequence (Q9HCP0 whole entry, looked up, canonical isoform): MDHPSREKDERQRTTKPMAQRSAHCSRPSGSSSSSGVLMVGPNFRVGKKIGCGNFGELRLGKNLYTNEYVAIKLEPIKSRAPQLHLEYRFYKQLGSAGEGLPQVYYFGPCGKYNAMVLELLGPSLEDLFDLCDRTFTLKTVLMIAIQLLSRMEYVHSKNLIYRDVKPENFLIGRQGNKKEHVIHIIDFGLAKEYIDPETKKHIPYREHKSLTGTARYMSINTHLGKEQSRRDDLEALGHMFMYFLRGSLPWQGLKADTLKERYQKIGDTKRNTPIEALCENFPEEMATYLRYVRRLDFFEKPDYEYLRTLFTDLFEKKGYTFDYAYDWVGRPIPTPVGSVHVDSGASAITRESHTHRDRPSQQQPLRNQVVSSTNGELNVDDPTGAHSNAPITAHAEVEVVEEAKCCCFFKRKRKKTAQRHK

[3] = target: T2, Serine/threonine-protein kinase ULK3 (Homo sapiens) (UniProt Q6PHR2); experiment: Selectivity interaction (KinomeScan (DiscoverX)) EUB0000655a ULK3; conditions: at 10 µM
T2 sequence (whole entry): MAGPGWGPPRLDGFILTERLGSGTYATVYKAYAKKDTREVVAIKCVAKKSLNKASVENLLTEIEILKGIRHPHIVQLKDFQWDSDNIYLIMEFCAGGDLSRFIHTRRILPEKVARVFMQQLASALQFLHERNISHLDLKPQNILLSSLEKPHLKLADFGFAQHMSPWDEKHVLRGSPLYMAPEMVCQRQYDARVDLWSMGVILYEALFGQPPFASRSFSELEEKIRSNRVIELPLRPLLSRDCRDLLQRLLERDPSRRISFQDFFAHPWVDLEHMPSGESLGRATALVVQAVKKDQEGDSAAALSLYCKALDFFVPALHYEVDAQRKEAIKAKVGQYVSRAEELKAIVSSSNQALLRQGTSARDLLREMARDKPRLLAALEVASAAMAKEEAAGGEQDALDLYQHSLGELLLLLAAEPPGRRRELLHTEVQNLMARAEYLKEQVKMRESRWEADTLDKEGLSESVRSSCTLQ

[4] = target: T3, Inhibitor of nuclear factor kappa-B kinase subunit beta (Homo sapiens) (UniProt O14920); experiment: Selectivity interaction (Ambit KINOMEscan and KiNATiv profiling in Jurkat cells) EUB0000090b IKBKB; type: cell-based; conditions: at 1 µM
T3 sequence (whole entry): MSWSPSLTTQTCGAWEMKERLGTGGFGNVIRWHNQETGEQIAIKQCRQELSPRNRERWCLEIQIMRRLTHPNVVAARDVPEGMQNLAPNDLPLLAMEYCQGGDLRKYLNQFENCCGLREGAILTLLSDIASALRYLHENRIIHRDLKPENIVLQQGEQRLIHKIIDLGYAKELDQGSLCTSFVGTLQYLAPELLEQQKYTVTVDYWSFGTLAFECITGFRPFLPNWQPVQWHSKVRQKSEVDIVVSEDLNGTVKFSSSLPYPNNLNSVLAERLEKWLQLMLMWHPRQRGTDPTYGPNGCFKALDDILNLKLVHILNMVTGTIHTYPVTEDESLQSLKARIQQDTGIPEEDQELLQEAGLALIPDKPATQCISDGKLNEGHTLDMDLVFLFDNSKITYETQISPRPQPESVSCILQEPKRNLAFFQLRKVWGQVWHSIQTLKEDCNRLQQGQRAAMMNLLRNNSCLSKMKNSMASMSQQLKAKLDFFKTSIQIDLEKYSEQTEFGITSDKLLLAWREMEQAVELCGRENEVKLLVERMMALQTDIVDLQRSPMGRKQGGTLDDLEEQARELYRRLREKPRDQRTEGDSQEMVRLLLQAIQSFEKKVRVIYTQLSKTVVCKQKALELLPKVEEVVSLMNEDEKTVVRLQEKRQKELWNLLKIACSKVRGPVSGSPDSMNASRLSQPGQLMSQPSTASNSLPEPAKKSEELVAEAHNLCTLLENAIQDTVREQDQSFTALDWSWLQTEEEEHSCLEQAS

[5] = target: Myosin-IIIa (Homo sapiens) (UniProt Q8NEV4); experiment: Selectivity interaction (Ambit KINOMEscan and KiNATiv profiling in Jurkat cells) EUB0000090b MYO3A; type: cell-based; conditions: at 1 µM
Myosin-IIIa (Homo sapiens), sequence (Q8NEV4 whole entry): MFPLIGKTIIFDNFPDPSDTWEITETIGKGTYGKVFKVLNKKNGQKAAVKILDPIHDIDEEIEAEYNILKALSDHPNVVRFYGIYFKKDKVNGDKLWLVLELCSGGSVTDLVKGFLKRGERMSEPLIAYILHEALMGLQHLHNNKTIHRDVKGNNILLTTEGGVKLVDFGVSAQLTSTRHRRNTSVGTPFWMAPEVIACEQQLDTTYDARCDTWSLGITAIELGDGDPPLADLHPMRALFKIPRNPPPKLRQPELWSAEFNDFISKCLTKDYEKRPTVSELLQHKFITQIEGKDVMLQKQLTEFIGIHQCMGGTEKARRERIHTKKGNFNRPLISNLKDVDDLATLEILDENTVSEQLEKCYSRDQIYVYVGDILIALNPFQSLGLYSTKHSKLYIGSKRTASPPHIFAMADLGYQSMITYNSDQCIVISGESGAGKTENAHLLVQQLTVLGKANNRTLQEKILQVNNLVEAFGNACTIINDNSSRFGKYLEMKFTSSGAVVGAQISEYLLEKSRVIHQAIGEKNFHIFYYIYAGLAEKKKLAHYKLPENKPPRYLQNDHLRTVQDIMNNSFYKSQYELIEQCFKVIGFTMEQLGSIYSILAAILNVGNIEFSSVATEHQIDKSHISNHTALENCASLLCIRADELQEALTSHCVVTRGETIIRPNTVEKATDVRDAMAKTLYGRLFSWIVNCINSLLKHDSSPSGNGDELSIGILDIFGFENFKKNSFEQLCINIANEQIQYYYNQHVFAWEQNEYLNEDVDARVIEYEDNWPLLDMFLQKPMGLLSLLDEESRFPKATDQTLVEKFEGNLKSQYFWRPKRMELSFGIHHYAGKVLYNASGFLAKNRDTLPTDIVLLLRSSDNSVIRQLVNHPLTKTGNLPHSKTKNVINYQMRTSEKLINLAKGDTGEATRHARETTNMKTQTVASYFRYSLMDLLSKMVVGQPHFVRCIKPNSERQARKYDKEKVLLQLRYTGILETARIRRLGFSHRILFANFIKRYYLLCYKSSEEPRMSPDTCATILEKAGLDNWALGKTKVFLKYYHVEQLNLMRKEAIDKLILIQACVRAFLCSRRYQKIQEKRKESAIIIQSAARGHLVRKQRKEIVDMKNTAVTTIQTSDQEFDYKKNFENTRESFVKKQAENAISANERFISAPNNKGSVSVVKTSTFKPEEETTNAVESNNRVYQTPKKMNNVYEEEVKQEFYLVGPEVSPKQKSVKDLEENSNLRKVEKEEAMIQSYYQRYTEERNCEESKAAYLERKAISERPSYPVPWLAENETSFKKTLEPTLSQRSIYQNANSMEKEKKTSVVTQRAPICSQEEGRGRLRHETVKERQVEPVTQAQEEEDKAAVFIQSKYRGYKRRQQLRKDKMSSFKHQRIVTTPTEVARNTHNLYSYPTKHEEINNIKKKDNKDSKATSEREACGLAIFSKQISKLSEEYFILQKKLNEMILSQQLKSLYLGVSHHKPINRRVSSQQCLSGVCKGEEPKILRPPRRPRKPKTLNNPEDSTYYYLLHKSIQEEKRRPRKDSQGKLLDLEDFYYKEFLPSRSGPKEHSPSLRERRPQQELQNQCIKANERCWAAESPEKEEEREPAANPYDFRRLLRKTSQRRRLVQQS

CCc1cccc(CC)c1NC(=O)c1nn(C)c2c1CCc1cnc(Nc3ccc(C(=O)NC4CCN(C)CC4)cc3OC(F)(F)F)nc1-2
IC50 [1]: > 10 µM

CN(C)CCOc1ccc(-c2nc(-c3ccncc3)c(-c3ccc4c(c3)CC/C4=N\O)[nH]2)cc1
% of control [2]: 81% | % of control [3]: 88%

CN(C)C/C=C/C(=O)Nc1ccc(C(=O)N2CCCC(Nc3ncc(Cl)c(-c4c[nH]c5ccccc45)n3)C2)cc1 (stereo not given)
% of control [4]: 73% | % of control [5]: 100%
